Calls of active or inactive are those of the source. No cut-off for these calls is given here.
Legend:
[1] = Cytotoxicity against human MGC803 cells assessed as reduction in cell viability after 72 hrs by MTT assay; format: functional, cell-based; conditions: MGC-803, 72 h
[2] = Cytotoxicity against human EC109 cells assessed as reduction in cell viability after 72 hrs by MTT assay; format: functional, cell-based; conditions: ECa-109, 72 h
[3] = system: MCF7; assay: Cytotoxicity against human MCF7 cells assessed as reduction in cell viability after 72 hrs by MTT assay; format: functional, cell-based; conditions: MCF7, 72 h
[4] = Cytotoxicity against human SMMC7721 cells assessed as reduction in cell viability after 72 hrs by MTT assay; format: functional, cell-based; conditions: SMMC-7721, 72 h
[5] = Cytotoxicity against human GES-1 cells assessed as cell viability at 20 uM after 72 hrs by MTT assay relative to control; format: cell-based, GES1; conditions: read-out: Activity
[6] = system: MGC-803; assay: Induction of apoptosis in human MGC803 cells assessed as morphological changes at 4 to 12 uM after 12 hrs by inverted microscopy; format: functional, cell-based
[7] = system: MGC-803; assay: Induction of apoptosis in human MGC803 cells assessed as nuclear morphological changes at 4 to 12 uM after 12 hrs by Hoechst 33258 staining based fluorescence assay; format: functional, cell-based
[8] = system: MGC-803; assay: Induction of apoptosis in human MGC803 cells assessed as early apoptotic cells at 4 uM after 12 hrs by Annexin V-FITC/propidium iodide staining based flow cytometry (reference value: 6.3%); format: functional
[9] = system: MGC-803; assay: Induction of apoptosis in human MGC803 cells assessed as late apoptotic cells at 4 uM after 12 hrs by Annexin V-FITC/propidium iodide staining based flow cytometry (reference value: 1.2%); format: functional
[10] = system: MGC-803; assay: Induction of apoptosis in human MGC803 cells assessed as necrotic cells at 4 uM after 12 hrs by Annexin V-FITC/propidium iodide staining based flow cytometry (reference value: 9.2%); format: functional
[11] = system: MGC-803; assay: Induction of apoptosis in human MGC803 cells assessed as viable cells at 4 uM after 12 hrs by Annexin V-FITC/propidium iodide staining based flow cytometry (reference value: 83.4%); format: functional; conditions: MGC-803, 12 h, read-out: Activity
[12] = system: MGC-803; assay: Induction of apoptosis in human MGC803 cells assessed as early apoptotic cells at 8 uM after 12 hrs by Annexin V-FITC/propidium iodide staining based flow cytometry (reference value: 6.3%); format: functional
[13] = system: MGC-803; assay: Induction of apoptosis in human MGC803 cells assessed as late apoptotic cells at 8 uM after 12 hrs by Annexin V-FITC/propidium iodide staining based flow cytometry (reference value: 1.2%); format: functional
[14] = system: MGC-803; assay: Induction of apoptosis in human MGC803 cells assessed as necrotic cells at 8 uM after 12 hrs by Annexin V-FITC/propidium iodide staining based flow cytometry (reference value: 9.2%); format: functional
[15] = system: MGC-803; assay: Induction of apoptosis in human MGC803 cells assessed as viable cells at 8 uM after 12 hrs by Annexin V-FITC/propidium iodide staining based flow cytometry (reference value: 83.4%); format: functional; conditions: MGC-803, 12 h, read-out: Activity
[16] = system: MGC-803; assay: Induction of apoptosis in human MGC803 cells assessed as early apoptotic cells at 12 uM after 12 hrs by Annexin V-FITC/propidium iodide staining based flow cytometry (reference value: 6.3%); format: functional
[17] = system: MGC-803; assay: Induction of apoptosis in human MGC803 cells assessed as late apoptotic cells at 12 uM after 12 hrs by Annexin V-FITC/propidium iodide staining based flow cytometry (reference value: 1.2%); format: functional
[18] = system: MGC-803; assay: Induction of apoptosis in human MGC803 cells assessed as necrotic cells at 12 uM after 12 hrs by Annexin V-FITC/propidium iodide staining based flow cytometry (reference value: 9.2%); format: functional
[19] = system: MGC-803; assay: Induction of apoptosis in human MGC803 cells assessed as viable cells at 12 uM after 12 hrs by Annexin V-FITC/propidium iodide staining based flow cytometry (reference value: 83.4%); format: functional; conditions: MGC-803, 12 h, read-out: Activity
[20] = system: MGC-803; assay: Induction of apoptosis in human MGC803 cells assessed as early apoptotic cells at 4 uM after 24 hrs by Annexin V-FITC/propidium iodide staining based flow cytometry (reference value: 6%); format: functional
[21] = system: MGC-803; assay: Induction of apoptosis in human MGC803 cells assessed as late apoptotic cells at 4 uM after 24 hrs by Annexin V-FITC/propidium iodide staining based flow cytometry (reference value: 1.2%); format: functional
[22] = system: MGC-803; assay: Induction of apoptosis in human MGC803 cells assessed as necrotic cells at 4 uM after 24 hrs by Annexin V-FITC/propidium iodide staining based flow cytometry (reference value: 6.1%); format: functional
[23] = system: MGC-803; assay: Induction of apoptosis in human MGC803 cells assessed as viable cells at 4 uM after 24 hrs by Annexin V-FITC/propidium iodide staining based flow cytometry (reference value: 86.6%); format: functional; conditions: MGC-803, 24 h, read-out: Activity
[24] = system: MGC-803; assay: Induction of apoptosis in human MGC803 cells assessed as early apoptotic cells at 8 uM after 24 hrs by Annexin V-FITC/propidium iodide staining based flow cytometry (reference value: 6%); format: functional
[25] = system: MGC-803; assay: Induction of apoptosis in human MGC803 cells assessed as late apoptotic cells at 8 uM after 24 hrs by Annexin V-FITC/propidium iodide staining based flow cytometry (reference value: 1.2%); format: functional
[26] = system: MGC-803; assay: Induction of apoptosis in human MGC803 cells assessed as necrotic cells at 8 uM after 24 hrs by Annexin V-FITC/propidium iodide staining based flow cytometry (reference value: 6.1%); format: functional
[27] = system: MGC-803; assay: Induction of apoptosis in human MGC803 cells assessed as viable cells at 8 uM after 24 hrs by Annexin V-FITC/propidium iodide staining based flow cytometry (reference value: 86.6%); format: functional; conditions: MGC-803, 24 h, read-out: Activity
[28] = system: MGC-803; assay: Induction of apoptosis in human MGC803 cells assessed as early apoptotic cells at 12 uM after 24 hrs by Annexin V-FITC/propidium iodide staining based flow cytometry (reference value: 6%); format: functional
[29] = system: MGC-803; assay: Induction of apoptosis in human MGC803 cells assessed as late apoptotic cells at 12 uM after 24 hrs by Annexin V-FITC/propidium iodide staining based flow cytometry (reference value: 1.2%); format: functional
[30] = system: MGC-803; assay: Induction of apoptosis in human MGC803 cells assessed as necrotic cells at 12 uM after 24 hrs by Annexin V-FITC/propidium iodide staining based flow cytometry (reference value: 6.1%); format: functional
[31] = system: MGC-803; assay: Induction of apoptosis in human MGC803 cells assessed as viable cells at 12 uM after 24 hrs by Annexin V-FITC/propidium iodide staining based flow cytometry (reference value: 86.6%); format: functional; conditions: MGC-803, 24 h, read-out: Activity
[32] = system: MGC-803; assay: Induction of apoptosis in human MGC803 cells assessed as increase in expression of cleaved caspase-9 at 4 to 12 uM after 24 hrs by Western blot analysis; format: functional, cell-based
[33] = system: MGC-803; assay: Induction of apoptosis in human MGC803 cells assessed as increase in expression of cleaved caspase-3 at 4 to 12 uM after 24 hrs by Western blot analysis; format: functional, cell-based
[34] = system: MGC-803; assay: Induction of apoptosis in human MGC803 cells assessed as decrease in expression of procaspase-9 at 4 to 12 uM after 24 hrs by Western blot analysis; format: functional, cell-based
[35] = system: MGC-803; assay: Induction of apoptosis in human MGC803 cells assessed as decrease in expression of procaspase-3 at 4 to 12 uM after 24 hrs by Western blot analysis; format: functional, cell-based
[36] = system: MGC-803; assay: Induction of apoptosis in human MGC803 cells assessed as increase in Bax protein expression after 24 hrs by Western blot analysis; format: functional, cell-based
[37] = system: MGC-803; assay: Induction of apoptosis in human MGC803 cells assessed as reduction in Bcl-2 protein expression after 24 hrs by Western blot analysis; format: functional, cell-based
[38] = system: MGC-803; assay: Induction of apoptosis in human MGC803 cells assessed as increase in expression of cleaved caspase-9 at 4 to 12 uM by Western blot analysis; format: functional, cell-based; conditions: TDE = time-dependent effect
[39] = system: MGC-803; assay: Induction of apoptosis in human MGC803 cells assessed as increase in expression of cleaved caspase-3 at 4 to 12 uM by Western blot analysis; format: functional, cell-based; conditions: TDE = time-dependent effect
[40] = system: MGC-803; assay: Induction of apoptosis in human MGC803 cells assessed as increase in expression of cleaved caspase-9 after 24 hrs by Western blot analysis; format: functional, cell-based
[41] = system: MGC-803; assay: Induction of apoptosis in human MGC803 cells assessed as increase in expression of cleaved caspase-3 after 24 hrs by Western blot analysis; format: functional, cell-based
[42] = system: Mus musculus; assay: Toxicity in nude mouse xenografted with human MGC803 cells assessed as body weight loss at 7.5 to 30 mg/kg, po qd for 28 days; format: organism-based, MGC-803; conditions: in vivo, 672 h
[43] = Antitumor activity against human MGC803 cells xenografted in nude mouse assessed as reduction in tumor weight 7.5 to 30 mg/kg, po qd for 28 days relative to control; format: functional, MGC-803; design: scale not given: the % may be the effect or the level left
[44] = system: MGC-803; assay: Induction of apoptosis in human MGC803 cells by Annexin V-FITC/propidium iodide staining based flow cytometry; format: functional, cell-based

O=C1C(=C/C=C/c2ccccc2)C(=O)N(c2ccc(Cl)cc2)N1c1ccc(Cl)cc1
IC50 [1]: 5.1 µM
IC50 [2]: 9.9 µM
IC50 [3]: 9.4 µM
IC50 [4]: 10.1 µM
viability at 72 h, 20 µM [5]: 75%
Activity [6]: Active
Activity [7]: Active
Activity [8]: 12.8%
Activity [9]: 1.8%
Activity [10]: 7.8%
viability at 4 µM [11]: 77.7%
Activity [12]: 21.5%
Activity [13]: 1.7%
Activity [14]: 5.7%
viability at 8 µM [15]: 71.1%
Activity [16]: 30.1%
Activity [17]: 1.9%
Activity [18]: 3.9%
viability at 12 µM [19]: 64.1%
Activity [20]: 20.4%
Activity [21]: 1.8%
Activity [22]: 5.8%
viability at 4 µM [23]: 72.1%
Activity [24]: 28.8%
Activity [25]: 2%
Activity [26]: 4.2%
viability at 8 µM [27]: 65%
Activity [28]: 52.7%
Activity [29]: 3.7%
Activity [30]: 4.4%
viability at 12 µM [31]: 39.2%
Activity [32]: Active
Activity [33]: Active
Activity [34]: Active
Activity [35]: Active
Activity [36]: Dose-dependent effect
Activity [37]: Dose-dependent effect
Activity [38]: tde
Activity [39]: tde
Activity [40]: Dose-dependent effect
Activity [41]: Dose-dependent effect
Activity [42]: Non-toxic
Activity [43]: 60.4%
Activity [44]: Dose-dependent effect
